Reference: article PMC10794144, “A novel antibiotic class targeting the lipopolysaccharide transporter” (Nature, 2024)
In brackets after ≈: the same amount, converted by molar mass. Where two headings read alike, the source gives them in different places. Marks after values point to notes of the source that are not given here.

Test system: A. baumannii
Test: MIC, broth microdilution in CAMHB supplemented with human serum, read at 100% growth inhibition
Assay type: cell-based, Acinetobacter baumannii
Conditions: for MIC: read-out: MIC
Protocol: MIC determinations were performed using the broth microdilution method and in line with CLSI guidelines M07 and M100 (refs. [37],[38]). Bacterial inocula were prepared by diluting a 0.5 McFarland suspension in CAMHB or lysogeny broth (LB) specifically for A. baylyi isolates. […] MIC values of all of the tested antibiotics were read as the lowest compound concentration inhibiting bacterial growth by naked eye or beyond which the OD600 ceased to decrease.

CN1C(=O)[C@H](CCCCN)NC(=O)[C@H](CCCN)NCc2cccnc2Sc2cccc(-c3ccc(C(=O)O)cc3)c2CNC(=O)[C@@H]1Cc1c[nH]c2ccccc12 [zosurabalpin]
MIC (Acinetobacter baumannii, isolate 1633269, 20% HS): 2 µg/mL (≈ 2.53 µM)
MIC (Acinetobacter baumannii, isolate 1633271, 20% HS): 1 µg/mL (≈ 1.26 µM)
MIC (Acinetobacter baumannii, isolate 1633272, 20% HS): 1 µg/mL (≈ 1.26 µM)
MIC (Acinetobacter baumannii, isolate 1728772, 20% HS): 0.25 µg/mL (≈ 0.316 µM)
MIC (Acinetobacter baumannii, isolate 1728773, 20% HS): 0.5 µg/mL (≈ 0.632 µM)
MIC (Acinetobacter baumannii, isolate 1728774, 20% HS): 0.25 µg/mL (≈ 0.316 µM)
MIC (Acinetobacter baumannii, isolate 1728884, 20% HS): 0.5 µg/mL (≈ 0.632 µM)
MIC (Acinetobacter baumannii, isolate 1729042, 20% HS): 2 µg/mL (≈ 2.53 µM)
MIC (Acinetobacter baumannii, isolate 1729043, 20% HS): 1 µg/mL (≈ 1.26 µM)
MIC (Acinetobacter baumannii, isolate 1729044, 20% HS): 1 µg/mL (≈ 1.26 µM)
MIC (Acinetobacter baumannii, isolate 1729049, 20% HS): 2 µg/mL (≈ 2.53 µM)
MIC (Acinetobacter baumannii, isolate 1729050, 20% HS): 2 µg/mL (≈ 2.53 µM)
MIC (Acinetobacter baumannii, isolate 1729052, 20% HS): 1 µg/mL (≈ 1.26 µM)
MIC (Acinetobacter baumannii, isolate 1729102, 20% HS): 4 µg/mL (≈ 5.06 µM)
MIC (Acinetobacter baumannii, isolate 1729123, 20% HS): 0.5 µg/mL (≈ 0.632 µM)
MIC (Acinetobacter baumannii, isolate 1729351, 20% HS): 0.5 µg/mL (≈ 0.632 µM)
MIC (Acinetobacter baumannii, isolate 1729352, 20% HS): 0.25 µg/mL (≈ 0.316 µM)
MIC (Acinetobacter baumannii, isolate 1729353, 20% HS): 0.25 µg/mL (≈ 0.316 µM)
MIC (Acinetobacter baumannii, isolate 1729358, 20% HS): 0.25 µg/mL (≈ 0.316 µM)
MIC (Acinetobacter baumannii, isolate 1729362, 20% HS): 1 µg/mL (≈ 1.26 µM)
MIC (Acinetobacter baumannii, isolate 1729379, 20% HS): 1 µg/mL (≈ 1.26 µM)
MIC (Acinetobacter baumannii, isolate 1864609, 20% HS): 0.06 µg/mL (≈ 0.0759 µM)
MIC (Acinetobacter baumannii, isolate 1864833, 20% HS): 0.5 µg/mL (≈ 0.632 µM)
MIC (Acinetobacter baumannii, isolate 1865057, 20% HS): 0.25 µg/mL (≈ 0.316 µM)
MIC (Acinetobacter baumannii, isolate 1865083, 20% HS): 0.5 µg/mL (≈ 0.632 µM)
MIC (Acinetobacter baumannii, isolate 1865084, 20% HS): 0.5 µg/mL (≈ 0.632 µM)
MIC (Acinetobacter baumannii, isolate 1865085, 20% HS): 0.5 µg/mL (≈ 0.632 µM)
MIC (Acinetobacter baumannii, isolate 1865086, 20% HS): 0.5 µg/mL (≈ 0.632 µM)
MIC (Acinetobacter baumannii, isolate 1865266, 20% HS): 1 µg/mL (≈ 1.26 µM)
MIC (Acinetobacter baumannii, isolate 1865269, 20% HS): 0.25 µg/mL (≈ 0.316 µM)
MIC (Acinetobacter baumannii, isolate 1865273, 20% HS): 0.06 µg/mL (≈ 0.0759 µM)
MIC (Acinetobacter baumannii, isolate 1865274, 20% HS): 0.25 µg/mL (≈ 0.316 µM)
MIC (Acinetobacter baumannii, isolate 1865386, 20% HS): 0.125 µg/mL (≈ 0.158 µM)
MIC (Acinetobacter baumannii, isolate 1865387, 20% HS): 0.125 µg/mL (≈ 0.158 µM)
MIC (Acinetobacter baumannii, isolate 1865494, 20% HS): 0.06 µg/mL (≈ 0.0759 µM)
MIC (Acinetobacter baumannii, isolate 1865714, 20% HS): 0.25 µg/mL (≈ 0.316 µM)
MIC (Acinetobacter baumannii, isolate 1866281, 20% HS): 0.125 µg/mL (≈ 0.158 µM)
MIC (Acinetobacter baumannii, isolate 1866282, 20% HS): 0.06 µg/mL (≈ 0.0759 µM)
MIC (Acinetobacter baumannii, isolate 1866283, 20% HS): 0.03 µg/mL (≈ 0.0379 µM)
MIC (Acinetobacter baumannii, isolate 1866370, 20% HS): 0.25 µg/mL (≈ 0.316 µM)
MIC (Acinetobacter baumannii, isolate 1866376, 20% HS): 0.25 µg/mL (≈ 0.316 µM)
MIC (Acinetobacter baumannii, isolate 1868315, 20% HS): 0.5 µg/mL (≈ 0.632 µM)
MIC (Acinetobacter baumannii, isolate 1869068, 20% HS): 1 µg/mL (≈ 1.26 µM)
MIC (Acinetobacter baumannii, isolate 1869084, 20% HS): 4 µg/mL (≈ 5.06 µM)
MIC (Acinetobacter baumannii, isolate 1869085, 20% HS): 1 µg/mL (≈ 1.26 µM)
MIC (Acinetobacter baumannii, isolate 1869086, 20% HS): 1 µg/mL (≈ 1.26 µM)
MIC (Acinetobacter baumannii, isolate 1869087, 20% HS): 1 µg/mL (≈ 1.26 µM)
MIC (Acinetobacter baumannii, isolate 1869088, 20% HS): 0.5 µg/mL (≈ 0.632 µM)
MIC (Acinetobacter baumannii, isolate 1869089, 20% HS): 0.25 µg/mL (≈ 0.316 µM)
MIC (Acinetobacter baumannii, isolate 1869090, 20% HS): 0.25 µg/mL (≈ 0.316 µM)
MIC (Acinetobacter baumannii, isolate 1869091, 20% HS): 0.25 µg/mL (≈ 0.316 µM)
MIC (Acinetobacter baumannii, isolate 1869093, 20% HS): 0.25 µg/mL (≈ 0.316 µM)
MIC (Acinetobacter baumannii, isolate 1869173, 20% HS): 0.25 µg/mL (≈ 0.316 µM)
MIC (Acinetobacter baumannii, isolate 1870044, 20% HS): 0.03 µg/mL (≈ 0.0379 µM)
MIC (Acinetobacter baumannii, isolate 1870131, 20% HS): 1 µg/mL (≈ 1.26 µM)
MIC (Acinetobacter baumannii, isolate 1870152, 20% HS): 0.25 µg/mL (≈ 0.316 µM)
MIC (Acinetobacter baumannii, isolate 1870171, 20% HS): 0.5 µg/mL (≈ 0.632 µM)
MIC (Acinetobacter baumannii, isolate 1871948, 20% HS): 1 µg/mL (≈ 1.26 µM)
MIC (Acinetobacter baumannii, isolate 1872001, 20% HS): 0.25 µg/mL (≈ 0.316 µM)
MIC (Acinetobacter baumannii, isolate 1872360, 20% HS): 4 µg/mL (≈ 5.06 µM)
MIC (Acinetobacter baumannii, isolate 1887389, 20% HS): 0.06 µg/mL (≈ 0.0759 µM)
MIC (Acinetobacter baumannii, isolate 1887397, 20% HS): 0.06 µg/mL (≈ 0.0759 µM)
MIC (Acinetobacter baumannii, isolate 1887497, 20% HS): 0.06 µg/mL (≈ 0.0759 µM)
MIC (Acinetobacter baumannii, isolate 1887498, 20% HS): 0.06 µg/mL (≈ 0.0759 µM)
MIC (Acinetobacter baumannii, isolate 1897312, 20% HS): 0.03 µg/mL (≈ 0.0379 µM)
MIC (Acinetobacter baumannii, isolate 1897314, 20% HS): 0.25 µg/mL (≈ 0.316 µM)
MIC (Acinetobacter baumannii, isolate 1897317, 20% HS): 0.25 µg/mL (≈ 0.316 µM)
MIC (Acinetobacter baumannii, isolate 1914727, 20% HS): 0.5 µg/mL (≈ 0.632 µM)
MIC (Acinetobacter baumannii, isolate 1914733, 20% HS): 0.06 µg/mL (≈ 0.0759 µM)
MIC (Acinetobacter baumannii, isolate 1930837, 20% HS): 0.06 µg/mL (≈ 0.0759 µM)
MIC (Acinetobacter baumannii, isolate 1930840, 20% HS): 0.125 µg/mL (≈ 0.158 µM)
MIC (Acinetobacter baumannii, mutations in adeRS): 1 to 8 µg/mL (≈ 1.26 to 10.1 µM)
MIC90 (Acinetobacter baumannii, 129 clinical isolates, CAMHB + 20% HS, n = 1): 1 µg/mL
Fold MIC increase (AdeR A91V vs parental): >4 - 32
Fold MIC increase (AdeS D128E vs parental): 2
Fold MIC increase (AdeS G160C vs parental): 4
Fold MIC increase (AdeS G318S vs parental): 8
Fold MIC increase (AdeS L197F vs parental): 4
Fold MIC increase (AdeS R108S vs parental): 4
Fold MIC increase (AdeS R152K vs parental): 4
Fold MIC increase (AdeS T66S vs parental): 4
Fold MIC increase (LptF (G326_E327)del vs parental): 64 - 128 ^a
Fold MIC increase (LptF (I319_K320)N vs parental): >256
Fold MIC increase (LptF (K320)del vs parental): >256
Fold MIC increase (LptF (K320)dup vs parental): 256
Fold MIC increase (LptF (V314_L315)del vs parental): 128
Fold MIC increase (LptF A318E vs parental): 32
Fold MIC increase (LptF E58G vs parental, CAMHB + 20% HS): 8
Fold MIC increase (LptF E58K vs parental): >256
Fold MIC increase (LptF E249K vs parental): 32 - 256 ^a
Fold MIC increase (LptF I317L vs parental): 32 - 64
Fold MIC increase (LptF I317N vs parental): >256
Fold MIC increase (LptF I317S vs parental): 256
Fold MIC increase (LptF I317T vs parental): 32
Fold MIC increase (LptF I323K vs parental): 64 - 128 ^a
Fold MIC increase (LptF I323R vs parental): 4 - 256 ^a
Fold MIC increase (LptF K320E vs parental): 256
Fold MIC increase (LptF K320N vs parental): 64
Fold MIC increase (LptF K320Q vs parental): 32
Fold MIC increase (LptF K320T vs parental): 16
Fold MIC increase (LptF L62H vs parental): 64 - 256 ^a
Fold MIC increase (LptF R322C vs parental): 32 - 128 ^a
Fold MIC increase (LptF R322G vs parental): 8 - 16 ^a
Fold MIC increase (LptF R322L vs parental): 32 - 64 ^a
Fold MIC increase (LptF R322S vs parental): 16
Fold MIC increase (LptF T121K vs parental): 8
Fold MIC increase (LptF W271R vs parental): 4
Fold MIC increase (LptF W271S vs parental): 16
Fold MIC increase (LptG G40D vs parental): 8
Fold MIC increase (LptG L36Q vs parental): 32
Fold MIC increase (LpxM IS66 vs parental): 32
Fold MIC increase (LpxM K285N vs parental): 4
Fold MIC increase (LpxM L44stop vs parental): 32
Fold MIC increase (LpxM W78stop vs parental): 32
Fold MIC increase (adeS ISAba1 vs parental): 4 - 32 ^a
Fold MIC increase (deletion of AGTGTGGAGTA 66nt upstream of adeR vs parental): 8
Fold MIC increase (lpxM ISAba1 vs parental): 32 - 64 ^a
